Assay results reported in ChEMBL document CHEMBL4014291, “Tripodal squaramide conjugates as highly effective transmembrane anion transporters” (Bioorg Med Chem Lett, 2017).
Calls of active or inactive are those of the source. The rule behind the calls is not given here.

Assays:
[1] = (§1) Ionophoric activity across pyranine dye encapsulated pH 7 egg yolk L-alpha-phosphatidylcholine-based large unilamellar vesicles assessed as nitrate ion transport by measuring initial rate constant for induction of pH discharge at 0.25 mol% in presence of NaNO3 loaded external vesicles by fluorescence method (reference value: 2.24 +/- 0.52 10^-2/min)
[2] = Ionophoric activity across pyranine dye encapsulated pH 7 egg yolk L-alpha-phosphatidylcholine-based large unilamellar vesicles assessed as sulfate ion transport by measuring induction of pH discharge up to 3 mol% in presence of Na2SO4 loaded external vesicles by fluorescence method
[3] = as §1, with “chloride” for “nitrate”, “0.125” for “0.25”, “NaCl” for “NaNO3”, “0.81” for “2.24”, “0.22” for “0.52”
[4] = as §1, with “bromide” for “nitrate”, “0.125” for “0.25”, “NaBr” for “NaNO3”, “2.08” for “2.24”, “0.19” for “0.52”
[5] = Ionophoric activity across pyranine dye encapsulated pH 7 egg yolk L-alpha-phosphatidylcholine-based large unilamellar vesicles assessed as iodide ion transport by measuring induction of pH discharge in presence of NaI loaded external vesicles by fluorescence method
[6] = Binding affinity to tetrabutylammonium chloride anion after 2 mins by spectrophotometric method
[7] = Ionophoric activity across pyranine dye encapsulated pH 7 egg yolk L-alpha-phosphatidylcholine-based large unilamellar vesicles assessed as nitrate ion transport by measuring induction of pH discharge in presence of NaNO3 loaded external vesicles by fluorescence method
[8] = as §1, with “iodide” for “nitrate”, “0.0156” for “0.25”, “NaI” for “NaNO3”, “3.52” for “2.24”, “0.22” for “0.52”
[9] = as §1, with “0.01563” for “0.25”
[10] = as §1, with “bromide” for “nitrate”, “0.0156” for “0.25”, “NaBr” for “NaNO3”, “2.08” for “2.24”, “0.19” for “0.52”
[11] = Ionophoric activity across egg yolk L-alpha-phosphatidylcholine-based large unilamellar vesicles loaded with LiCl assessed as chloride ion efflux at 3 mol% after 300 seconds in presence of NaNO3 loaded external vesicles by electrode technique
[12] = Ionophoric activity across egg yolk L-alpha-phosphatidylcholine-based large unilamellar vesicles loaded with NaCl assessed as release of chloride ion after 300 seconds in presence of NaNO3 loaded external vesicles by electrode technique
[13] = as §1, with “chloride” for “nitrate”, “0.0313” for “0.25”, “NaCl” for “NaNO3”, “0.81” for “2.24”, “0.22” for “0.52”
[14] = as §1, with “iodide” for “nitrate”, “0.0313” for “0.25”, “NaI” for “NaNO3”, “3.52” for “2.24”, “0.22” for “0.52”
[15] = as §1, with “bromide” for “nitrate”, “0.0313” for “0.25”, “NaBr” for “NaNO3”, “2.08” for “2.24”, “0.19” for “0.52”
[16] = as §1, with “bromide” for “nitrate”, “0.0625” for “0.25”, “NaBr” for “NaNO3”, “2.08” for “2.24”, “0.19” for “0.52”
[17] = Ionophoric activity across pyranine dye encapsulated pH 7 egg yolk L-alpha-phosphatidylcholine-based large unilamellar vesicles assessed as chloride ion transport by measuring induction of pH discharge in presence of NaCl loaded external vesicles by fluorescence method
[18] = as §1, with “0.0625” for “0.25”
[19] = as §1, with “0.125” for “0.25”
[20] = as §1, with “bromide” for “nitrate”, “NaBr” for “NaNO3”, “2.08” for “2.24”, “0.19” for “0.52”
[21] = as §1, with “iodide” for “nitrate”, “0.0078” for “0.25”, “NaI” for “NaNO3”, “3.52” for “2.24”, “0.22” for “0.52”
[22] = as §1, with “chloride” for “nitrate”, “1” for “0.25”, “NaCl” for “NaNO3”, “0.81” for “2.24”, “0.22” for “0.52”
[23] = Ionophoric activity across egg yolk L-alpha-phosphatidylcholine-based large unilamellar vesicles loaded with RbCl assessed as chloride ion efflux at 3 mol% after 300 seconds in presence of NaNO3 loaded external vesicles by electrode technique
[24] = as §1, with “iodide” for “nitrate”, “0.0625” for “0.25”, “NaI” for “NaNO3”, “3.52” for “2.24”, “0.22” for “0.52”
[25] = Ionophoric activity across egg yolk L-alpha-phosphatidylcholine-based large unilamellar vesicles loaded with NaCl assessed as chloride transportat 1 mol% after 300 seconds in presence of NaSO4 loaded external vesicles by electrode technique
[26] = Ionophoric activity across egg yolk L-alpha-phosphatidylcholine-based large unilamellar vesicles loaded with CsCl assessed as chloride ion efflux at 3 mol% after 300 seconds in presence of NaNO3 loaded external vesicles by electrode technique
[27] = as §1, with “iodide” for “nitrate”, “0.0039” for “0.25”, “NaI” for “NaNO3”, “3.52” for “2.24”, “0.22” for “0.52”
[28] = Ionophoric activity across egg yolk L-alpha-phosphatidylcholine-based large unilamellar vesicles loaded with KCl assessed as chloride ion efflux at 3 mol% after 300 seconds in presence of NaNO3 loaded external vesicles by electrode technique
[29] = as §1, with “chloride” for “nitrate”, “NaCl” for “NaNO3”, “0.81” for “2.24”, “0.22” for “0.52”
[30] = Ionophoric activity across pyranine dye encapsulated pH 7 egg yolk L-alpha-phosphatidylcholine-based large unilamellar vesicles assessed as bromide ion transport by measuring induction of pH discharge in presence of NaBr loaded external vesicles by fluorescence method
[31] = Binding affinity to tetramethylammonium sulfate anion after 2 mins by spectrophotometric method
[32] = as §1, with “chloride” for “nitrate”, “0.5” for “0.25”, “NaCl” for “NaNO3”, “0.81” for “2.24”, “0.22” for “0.52”
[33] = as §1, with “0.0313” for “0.25”
[34] = Ionophoric activity across HPTS dye encapsulated pH 7 egg yolk L-alpha-phosphatidylcholine-based large unilamellar vesicles assessed as chloride ion transport by measuring induction of pH discharge in presence of NaCl loaded external vesicles by fluorescence method
[35] = Ionophoric activity across egg yolk L-alpha-phosphatidylcholine-based large unilamellar vesicles loaded with CsCl assessed as chloride ion efflux at 1 mol% after 300 seconds in presence of NaNO3 loaded external vesicles by electrode technique
[36] = Ionophoric activity across egg yolk L-alpha-phosphatidylcholine-based large unilamellar vesicles loaded with LiCl assessed as chloride ion efflux at 1 mol% after 300 seconds in presence of NaNO3 loaded external vesicles by electrode technique
[37] = as §1, with “0.00781” for “0.25”
[38] = as §1, with “chloride” for “nitrate”, “0.0078” for “0.25”, “NaCl” for “NaNO3”, “0.81” for “2.24”, “0.22” for “0.52”
[39] = as §1, with “bromide” for “nitrate”, “0.0078” for “0.25”, “NaBr” for “NaNO3”, “2.08” for “2.24”, “0.19” for “0.52”
[40] = Ionophoric activity across egg yolk L-alpha-phosphatidylcholine-based large unilamellar vesicles loaded with KCl assessed as chloride ion efflux at 1 mol% after 300 seconds in presence of NaNO3 loaded external vesicles by electrode technique
[41] = Ionophoric activity across egg yolk L-alpha-phosphatidylcholine-based large unilamellar vesicles loaded with RbCl assessed as chloride ion efflux at 1 mol% after 300 seconds in presence of NaNO3 loaded external vesicles by electrode technique
[42] = as §1, with “chloride” for “nitrate”, “0.0625” for “0.25”, “NaCl” for “NaNO3”, “0.81” for “2.24”, “0.22” for “0.52”
[43] = Binding affinity to tetrabutylammonium sulphate anion by 1H NMR spectrophotometric method
[44] = Binding affinity to tetrabutylammonium chloride anion by 1H NMR spectrophotometric method
[45] = as §1, with “0.03125” for “0.25”

Row | Activity [2] | K [3] [×10⁻² /min] | K [4] [×10⁻² /min] | EC50 [5] [mol%] | Ka [6] | logKa [6] | EC50 [7] [mol%] | K [8] [×10⁻² /min] | K [9] [×10⁻² /min] | K [10] [×10⁻² /min] | Activity [12] | K [13] [×10⁻² /min] | K [14] [×10⁻² /min] | K [15] [×10⁻² /min] | K [16] [×10⁻² /min] | EC50 [17] [mol%] | K [18] [×10⁻² /min] | K [19] [×10⁻² /min] | K [21] [×10⁻² /min] | K [24] [×10⁻² /min] | SMILES | other results
1 | inactive | 2.57 | 6.24 | 0.05 | 2.94 ×10³ /M | 3.47 | 0.23 | 5.92 | 2.77 | 2.22 | Dose-dependent effect | 1.32 | 7.67 | 2.89 | 3.85 | 0.75 | 4.52 | 6.9 | 4.41 | 10.6 | O=c1c(NCCN(CCNc2c(Nc3cc(C(F)(F)F)cc(C(F)(F)F)c3)c(=O)c2=O)CCNc2c(Nc3cc(C(F)(F)F)cc(C(F)(F)F)c3)c(=O)c2=O)c(Nc2cc(C(F)(F)F)cc(C(F)(F)F)c2)c1=O | K [1]: 10.2 ×10⁻² /min; Activity [11]: inactive; K [20]: 10.8 ×10⁻² /min; K [22]: 9.42 ×10⁻² /min; Activity [23]: inactive; Activity [25]: inactive; Activity [26]: inactive; K [27]: 3.7 ×10⁻² /min; Activity [28]: inactive; K [29]: 3.87 ×10⁻² /min; EC50 [30]: 0.49 mol%; Ka [31]: > 1 ×10⁵ /M; logKa [31]: > 5; K [32]: 6.63 ×10⁻² /min; K [33]: 3.2 ×10⁻² /min
2 | – | – | – | – | – | – | – | – | – | – | – | – | – | – | – | – | – | – | – | – | O=C(Nc1ccccc1)Nc1ccc(N2COc3c(c4c(c5c3CN(c3ccc(NC(=O)Nc6ccccc6)cc3)CO5)CN(c3ccc(NC(=O)Nc5ccccc5)cc3)CO4)C2)cc1 | EC50 [34]: 0.49 mol%
3 | inactive | 4.04 | 11 | 0.06 | 7.03 ×10² /M | 2.84 | 0.11 | 6.27 | 3.17 | 3.37 | Dose-dependent effect | 1.68 | 9.99 | 4.31 | 7.27 | 0.14 | 7.45 | 11.4 | 5.2 | 14.5 | O=c1c(NCCN(CCNc2c(Nc3ccc(C(F)(F)F)cc3)c(=O)c2=O)CCNc2c(Nc3ccc(C(F)(F)F)cc3)c(=O)c2=O)c(Nc2ccc(C(F)(F)F)cc2)c1=O | Activity [35]: inactive; Activity [36]: inactive; K [37]: 2.53 ×10⁻² /min; K [38]: 1.27 ×10⁻² /min; K [39]: 2.59 ×10⁻² /min; Activity [40]: inactive; Activity [41]: inactive; Activity [25]: inactive; K [42]: 2.69 ×10⁻² /min; logKa [43]: 4.87; logKa [44]: 2.65; K [27]: 3.94 ×10⁻² /min; K [29]: 5.41 ×10⁻² /min; EC50 [30]: 0.13 mol%; Ka [31]: 4.79 ×10⁵ /M; logKa [31]: 5.64; K [45]: 4.91 ×10⁻² /min
